Measurements reported in patent US20170190671A1, “BIS(ARYL)CATECHOL DERIVATIVES AS HERBICIDES” (E I DU PONT DE NEMOURS AND COMPANY, priority 2014, published 2017).

What was measured:
Assay in all cases: Test D preemergence
Type in all cases: in vivo
Settings in all cases: scale 0 to 100
[1] = tested on: Italian ryegrass (Lolium multiflorum)
In short: (§1)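 Assessment is visual, relative to untreated controls, 14 to 21 days after application, with 100 meaning complete control. Seeds in silt loam receive preemergence spray; seedlings at the 1- to 4-leaf stage receive postemergence spray.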

[2] = tested on: Russian thistle (Salsola kali)
In short: as §1

[3] = tested on: blackgrass (Alopecurus myosuroides)
In short: as §1

[4] = tested on: chamomile (scentless chamomile, Matricaria inodora)
In short: as §1

[5] = tested on: chickweed (common chickweed, Stellaria media)
In short: as §1

[6] = tested on: cutleaf geranium (Geranium dissectum)
In short: as §1

[7] = tested on: deadnettle (henbit deadnettle, Lamium amplexicaule)
In short: as §1

[8] = tested on: downy bromegrass (Bromus tectorum)
In short: as §1

[9] = tested on: field poppy (Papaver rhoeas)
In short: as §1

[10] = tested on: field violet (Viola arvensis)
In short: as §1

[11] = tested on: galium (catchweed bedstraw, Galium aparine)
In short: as §1

[12] = tested on: green foxtail (Setaria viridis)
In short: as §1

[13] = tested on: lambsquarters (Chenopodium album)
In short: as §1

[14] = tested on: speedwell (bird's-eye speedwell, Veronica persica)
In short: as §1

[15] = tested on: spring barley (Hordeum vulgare)
In short: as §1

[16] = tested on: wild buckwheat (Polygonum convolvulus)
In short: as §1

[17] = tested on: wild mustard (Sinapis arvensis)
In short: as §1

[18] = tested on: wild radish (Raphanus raphanistrum)
In short: as §1

[19] = tested on: windgrass (Apera spica-venti)
In short: as §1

[20] = tested on: winter barley (Hordeum vulgare)
In short: as §1

[21] = tested on: winter wheat (Triticum aestivum)
In short: as §1

Q: Which results are given for `Fc1cnc(Oc2c(F)cccc2Oc2ncc(Cl)cn2)nc1` [Compound 23]?
A: Plant response rating, Ryegrass, Italian ([1]; 16 g ai/ha): 5; Plant response rating, Ryegrass, Italian ([1]; 31 g ai/ha): 10; Plant response rating, Ryegrass, Italian ([1]; 62 g ai/ha): 35; Plant response rating, Ryegrass, Italian ([1]; 125 g ai/ha): 75; Plant response rating, Russian Thistle ([2]; 16 g ai/ha): 0; Plant response rating, Russian Thistle ([2]; 31 g ai/ha): 0; Plant response rating, Russian Thistle ([2]; 62 g ai/ha): 5; Plant response rating, Russian Thistle ([2]; 125 g ai/ha): 5; Plant response rating, Blackgrass ([3]; 16 g ai/ha): 20; Plant response rating, Blackgrass ([3]; 31 g ai/ha): 30; Plant response rating, Blackgrass ([3]; 62 g ai/ha): 70; Plant response rating, Blackgrass ([3]; 125 g ai/ha): 85; Plant response rating, Chamomile ([4]; 16 g ai/ha): 20; Plant response rating, Chamomile ([4]; 31 g ai/ha): 75; Plant response rating, Chamomile ([4]; 62 g ai/ha): 75; Plant response rating, Chamomile ([4]; 125 g ai/ha): 100; Plant response rating, Chickweed ([5]; 16 g ai/ha): 50; Plant response rating, Chickweed ([5]; 31 g ai/ha): 100; Plant response rating, Chickweed ([5]; 62 g ai/ha): 100; Plant response rating, Chickweed ([5]; 125 g ai/ha): 100; Plant response rating, Geranium, Cutleaf ([6]; 16 g ai/ha): 25; Plant response rating, Geranium, Cutleaf ([6]; 31 g ai/ha): 100; Plant response rating, Geranium, Cutleaf ([6]; 62 g ai/ha): 100; Plant response rating, Geranium, Cutleaf ([6]; 125 g ai/ha): 100; Plant response rating, Deadnettle ([7]; 16 g ai/ha): 15; Plant response rating, Deadnettle ([7]; 31 g ai/ha): 65; Plant response rating, Deadnettle ([7]; 62 g ai/ha): 80; Plant response rating, Deadnettle ([7]; 125 g ai/ha): 95; Plant response rating, Bromegrass, Downy ([8]; 16 g ai/ha): 5; Plant response rating, Bromegrass, Downy ([8]; 31 g ai/ha): 25; Plant response rating, Bromegrass, Downy ([8]; 62 g ai/ha): 35; Plant response rating, Bromegrass, Downy ([8]; 125 g ai/ha): 70; Plant response rating, Field Poppy ([9]; 16 g ai/ha): 65; Plant response rating, Field Poppy ([9]; 31 g ai/ha): 80; Plant response rating, Field Poppy ([9]; 62 g ai/ha): 90; Plant response rating, Field Poppy ([9]; 125 g ai/ha): 98; Plant response rating, Field Violet ([10]; 16 g ai/ha): 25; Plant response rating, Field Violet ([10]; 31 g ai/ha): 25; Plant response rating, Field Violet ([10]; 62 g ai/ha): 95; Plant response rating, Field Violet ([10]; 125 g ai/ha): 100; Plant response rating, Galium ([11]; 16 g ai/ha): 70; Plant response rating, Galium ([11]; 31 g ai/ha): 75; Plant response rating, Galium ([11]; 62 g ai/ha): 95; Plant response rating, Galium ([11]; 125 g ai/ha): 100; Plant response rating, Foxtail, Green ([12]; 16 g ai/ha): 0; Plant response rating, Foxtail, Green ([12]; 31 g ai/ha): 5; Plant response rating, Foxtail, Green ([12]; 62 g ai/ha): 55; Plant response rating, Foxtail, Green ([12]; 125 g ai/ha): 100; Plant response rating, Lambsquarters ([13]; 16 g ai/ha): 25; Plant response rating, Lambsquarters ([13]; 31 g ai/ha): 100; Plant response rating, Lambsquarters ([13]; 62 g ai/ha): 100; Plant response rating, Lambsquarters ([13]; 125 g ai/ha): 100; Plant response rating, Speedwell ([14]; 16 g ai/ha): 100; Plant response rating, Speedwell ([14]; 31 g ai/ha): 100; Plant response rating, Speedwell ([14]; 62 g ai/ha): 100; Plant response rating, Speedwell ([14]; 125 g ai/ha): 100; Plant response rating, Barley, Spring ([15]; 16 g ai/ha): 0; Plant response rating, Barley, Spring ([15]; 31 g ai/ha): 5; Plant response rating, Barley, Spring ([15]; 62 g ai/ha): 30; Plant response rating, Barley, Spring ([15]; 125 g ai/ha): 75; Plant response rating, Buckwheat, Wild ([16]; 16 g ai/ha): 40; Plant response rating, Buckwheat, Wild ([16]; 31 g ai/ha): 50; Plant response rating, Buckwheat, Wild ([16]; 62 g ai/ha): 100; Plant response rating, Buckwheat, Wild ([16]; 125 g ai/ha): 100; Plant response rating, Mustard, Wild ([17]; 16 g ai/ha): 98; Plant response rating, Mustard, Wild ([17]; 31 g ai/ha): 100; Plant response rating, Mustard, Wild ([17]; 62 g ai/ha): 100; Plant response rating, Mustard, Wild ([17]; 125 g ai/ha): 100; Plant response rating, Radish, Wild ([18]; 16 g ai/ha): 25; Plant response rating, Radish, Wild ([18]; 31 g ai/ha): 70; Plant response rating, Radish, Wild ([18]; 62 g ai/ha): 90; Plant response rating, Radish, Wild ([18]; 125 g ai/ha): 100; Plant response rating, Windgrass ([19]; 16 g ai/ha): 20; Plant response rating, Windgrass ([19]; 31 g ai/ha): 75; Plant response rating, Windgrass ([19]; 62 g ai/ha): 98; Plant response rating, Windgrass ([19]; 125 g ai/ha): 100; Plant response rating, Barley, Winter ([20]; 16 g ai/ha): 0; Plant response rating, Barley, Winter ([20]; 31 g ai/ha): 0; Plant response rating, Barley, Winter ([20]; 62 g ai/ha): 30; Plant response rating, Barley, Winter ([20]; 125 g ai/ha): 70; Plant response rating, Wheat, Winter ([21]; 16 g ai/ha): 0; Plant response rating, Wheat, Winter ([21]; 31 g ai/ha): 5; Plant response rating, Wheat, Winter ([21]; 62 g ai/ha): 10; Plant response rating, Wheat, Winter ([21]; 125 g ai/ha): 70
